In ChEMBL document CHEMBL1201862, “PubChem BioAssay data set” (2004):
Calls of active or inactive are those of the source.

Legend:
Assay type in all cases: functional
Caspase-3 = biological target: T1, Caspase-3 (Homo sapiens, UniProt P42574);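 note: Dose-response selectivity test against caspase-3 for candidate inhibitors of sentrin-specific proteases (SENPs)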
T1 sequence (P42574 whole entry): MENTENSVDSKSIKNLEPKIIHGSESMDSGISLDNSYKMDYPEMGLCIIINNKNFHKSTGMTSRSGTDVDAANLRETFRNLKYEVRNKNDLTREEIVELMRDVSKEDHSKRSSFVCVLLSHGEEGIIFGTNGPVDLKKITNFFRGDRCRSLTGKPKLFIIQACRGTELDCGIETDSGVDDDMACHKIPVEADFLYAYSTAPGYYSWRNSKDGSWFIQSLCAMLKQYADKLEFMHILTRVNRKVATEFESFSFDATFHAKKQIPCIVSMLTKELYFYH

[1] = biological target: T2, Sentrin-specific protease 6 (Homo sapiens, UniProt Q9GZR1);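 note: Luminescence-based dose-response confirmatory assay of SENP6 inhibition, following up an ultra-high-throughput screen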
T2 sequence (Q9GZR1 whole entry): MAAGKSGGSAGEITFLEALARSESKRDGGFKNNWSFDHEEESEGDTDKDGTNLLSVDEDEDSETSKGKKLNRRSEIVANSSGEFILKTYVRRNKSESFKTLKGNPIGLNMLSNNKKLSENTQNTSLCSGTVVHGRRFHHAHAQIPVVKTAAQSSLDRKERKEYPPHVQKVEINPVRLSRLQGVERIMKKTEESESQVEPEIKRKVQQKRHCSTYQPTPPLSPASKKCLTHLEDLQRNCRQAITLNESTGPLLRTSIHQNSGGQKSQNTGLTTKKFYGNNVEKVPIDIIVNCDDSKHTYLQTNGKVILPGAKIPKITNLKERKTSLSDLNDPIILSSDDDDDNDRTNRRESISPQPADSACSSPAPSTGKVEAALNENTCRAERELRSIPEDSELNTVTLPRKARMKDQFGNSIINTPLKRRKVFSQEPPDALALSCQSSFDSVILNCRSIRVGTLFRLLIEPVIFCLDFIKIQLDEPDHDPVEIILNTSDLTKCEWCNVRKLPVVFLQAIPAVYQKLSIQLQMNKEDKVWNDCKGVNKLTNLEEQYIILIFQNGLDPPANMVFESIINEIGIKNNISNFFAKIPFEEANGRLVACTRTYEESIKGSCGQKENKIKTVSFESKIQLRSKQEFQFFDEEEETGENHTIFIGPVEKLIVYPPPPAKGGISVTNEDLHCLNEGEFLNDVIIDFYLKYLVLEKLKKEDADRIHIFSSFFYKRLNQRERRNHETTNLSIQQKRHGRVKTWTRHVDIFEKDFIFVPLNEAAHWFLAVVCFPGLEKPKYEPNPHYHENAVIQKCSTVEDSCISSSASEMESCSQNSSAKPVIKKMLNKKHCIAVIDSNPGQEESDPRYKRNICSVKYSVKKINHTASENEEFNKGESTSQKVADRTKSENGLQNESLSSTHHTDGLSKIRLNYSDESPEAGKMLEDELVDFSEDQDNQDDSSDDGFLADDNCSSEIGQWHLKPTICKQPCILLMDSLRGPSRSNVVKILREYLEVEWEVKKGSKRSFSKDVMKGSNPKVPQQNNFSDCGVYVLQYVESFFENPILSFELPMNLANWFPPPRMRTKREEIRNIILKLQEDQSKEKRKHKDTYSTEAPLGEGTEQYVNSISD

[2] = biological target: T3, Sentrin-specific protease 8 (Homo sapiens, UniProt Q96LD8);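 note: luminescence read-out of SENP8 inhibition, dose-response confirmation following an ultra-high-throughput screen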
T3 sequence (Q96LD8 whole entry): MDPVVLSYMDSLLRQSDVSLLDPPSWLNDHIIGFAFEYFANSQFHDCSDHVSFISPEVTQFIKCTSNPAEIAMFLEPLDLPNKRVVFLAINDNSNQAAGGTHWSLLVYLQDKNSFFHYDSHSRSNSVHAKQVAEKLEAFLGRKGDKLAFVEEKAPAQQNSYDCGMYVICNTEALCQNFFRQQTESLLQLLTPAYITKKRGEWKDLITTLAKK

[3] = biological target: T4, Sentrin-specific protease 7 (Homo sapiens, UniProt Q9BQF6);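 note: Luminescence-based dose-response confirmation of ultra-high-throughput screening hits, measuring inhibition of SENP7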
T4 sequence (Q9BQF6 whole entry): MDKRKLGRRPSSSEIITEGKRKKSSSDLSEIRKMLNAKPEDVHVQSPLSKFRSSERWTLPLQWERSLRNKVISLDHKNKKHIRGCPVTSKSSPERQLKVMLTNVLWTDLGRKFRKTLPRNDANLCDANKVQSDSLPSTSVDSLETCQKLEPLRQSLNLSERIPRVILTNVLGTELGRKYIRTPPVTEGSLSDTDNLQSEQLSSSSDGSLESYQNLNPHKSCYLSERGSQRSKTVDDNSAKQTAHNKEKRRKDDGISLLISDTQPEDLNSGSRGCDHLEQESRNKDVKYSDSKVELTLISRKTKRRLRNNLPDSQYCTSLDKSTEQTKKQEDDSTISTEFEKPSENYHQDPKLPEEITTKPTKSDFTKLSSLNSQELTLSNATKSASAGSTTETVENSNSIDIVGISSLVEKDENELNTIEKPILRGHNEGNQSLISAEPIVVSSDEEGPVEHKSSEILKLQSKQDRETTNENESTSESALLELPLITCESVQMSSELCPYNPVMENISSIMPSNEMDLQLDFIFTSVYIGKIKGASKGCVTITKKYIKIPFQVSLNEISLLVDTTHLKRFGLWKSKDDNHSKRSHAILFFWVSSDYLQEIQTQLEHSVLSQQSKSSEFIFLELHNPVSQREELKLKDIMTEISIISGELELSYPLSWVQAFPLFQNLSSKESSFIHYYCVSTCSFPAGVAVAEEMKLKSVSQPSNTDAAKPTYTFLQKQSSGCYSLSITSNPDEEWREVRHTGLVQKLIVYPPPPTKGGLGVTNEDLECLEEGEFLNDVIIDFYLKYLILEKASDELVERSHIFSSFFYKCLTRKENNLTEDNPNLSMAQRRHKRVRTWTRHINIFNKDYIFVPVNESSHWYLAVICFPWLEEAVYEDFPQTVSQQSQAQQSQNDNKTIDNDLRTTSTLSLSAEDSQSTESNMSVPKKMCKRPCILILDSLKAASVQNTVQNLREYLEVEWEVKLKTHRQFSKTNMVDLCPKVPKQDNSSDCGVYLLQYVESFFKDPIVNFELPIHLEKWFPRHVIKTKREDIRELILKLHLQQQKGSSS

H4 = assay: Luminescence Cell-Based Dose Response HTS to Identify Activators of 5'UTR Stem-Loop Driven Prion Protein mRNA Translation in H4 Neuroglioblastoma Cells. [Related pubchem assays: 1829 (Project Summary), 1814 (Primary HTS)]; conditions: Homo sapiens
[4] = Luminescence Cell-Based Dose Response HTS to Identify Activators of Luciferase Translation or Activity in H4 […] Cells. [Related pubchem assays: 1829 (Project Summary), 1814 (Primary HTS)]
Phospholipase D1 = biological target: T5, Phospholipase D1 (Homo sapiens, UniProt Q13393); assay: PLD1 inhibitor potency in cells, dose response (AID 602151);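 note: cellular PLD1 assay in Calu-1 cells stimulated with PMA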
T5 sequence (Q13393 whole entry): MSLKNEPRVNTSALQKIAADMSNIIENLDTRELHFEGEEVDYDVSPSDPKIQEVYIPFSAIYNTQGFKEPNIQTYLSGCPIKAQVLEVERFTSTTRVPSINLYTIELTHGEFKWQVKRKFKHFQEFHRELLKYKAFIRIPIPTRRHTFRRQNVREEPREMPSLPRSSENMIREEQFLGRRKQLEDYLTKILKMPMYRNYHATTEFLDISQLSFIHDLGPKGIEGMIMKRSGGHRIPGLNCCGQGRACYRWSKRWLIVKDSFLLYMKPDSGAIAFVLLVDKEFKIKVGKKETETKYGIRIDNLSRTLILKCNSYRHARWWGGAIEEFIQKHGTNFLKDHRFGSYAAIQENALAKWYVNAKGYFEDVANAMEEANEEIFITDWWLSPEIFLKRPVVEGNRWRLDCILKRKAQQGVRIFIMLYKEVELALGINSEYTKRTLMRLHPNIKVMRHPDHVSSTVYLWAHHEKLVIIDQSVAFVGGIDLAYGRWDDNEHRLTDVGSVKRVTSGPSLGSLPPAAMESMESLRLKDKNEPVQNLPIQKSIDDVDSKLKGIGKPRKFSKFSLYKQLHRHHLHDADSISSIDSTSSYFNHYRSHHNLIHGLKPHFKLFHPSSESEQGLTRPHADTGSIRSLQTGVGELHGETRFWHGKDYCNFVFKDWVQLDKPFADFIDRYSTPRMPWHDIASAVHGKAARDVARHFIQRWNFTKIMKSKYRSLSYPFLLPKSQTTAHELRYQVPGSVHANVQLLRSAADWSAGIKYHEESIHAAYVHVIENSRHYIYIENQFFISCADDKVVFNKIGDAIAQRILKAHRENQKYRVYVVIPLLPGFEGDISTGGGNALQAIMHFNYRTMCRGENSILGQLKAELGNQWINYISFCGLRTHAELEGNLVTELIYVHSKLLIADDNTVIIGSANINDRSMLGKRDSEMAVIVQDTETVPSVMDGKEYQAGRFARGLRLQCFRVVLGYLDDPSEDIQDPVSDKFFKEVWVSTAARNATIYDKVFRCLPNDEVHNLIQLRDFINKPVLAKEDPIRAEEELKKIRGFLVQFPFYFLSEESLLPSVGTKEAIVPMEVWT

Phospholipase D2 = Phospholipase D2 (Homo sapiens, UniProt O14939); assay: PLD2 inhibitor potency in cells, dose response (AID 602147);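 note: cellular assay in HEK293 cells overexpressing GFP-tagged PLD2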
Phospholipase D2, sequence (O14939 whole entry): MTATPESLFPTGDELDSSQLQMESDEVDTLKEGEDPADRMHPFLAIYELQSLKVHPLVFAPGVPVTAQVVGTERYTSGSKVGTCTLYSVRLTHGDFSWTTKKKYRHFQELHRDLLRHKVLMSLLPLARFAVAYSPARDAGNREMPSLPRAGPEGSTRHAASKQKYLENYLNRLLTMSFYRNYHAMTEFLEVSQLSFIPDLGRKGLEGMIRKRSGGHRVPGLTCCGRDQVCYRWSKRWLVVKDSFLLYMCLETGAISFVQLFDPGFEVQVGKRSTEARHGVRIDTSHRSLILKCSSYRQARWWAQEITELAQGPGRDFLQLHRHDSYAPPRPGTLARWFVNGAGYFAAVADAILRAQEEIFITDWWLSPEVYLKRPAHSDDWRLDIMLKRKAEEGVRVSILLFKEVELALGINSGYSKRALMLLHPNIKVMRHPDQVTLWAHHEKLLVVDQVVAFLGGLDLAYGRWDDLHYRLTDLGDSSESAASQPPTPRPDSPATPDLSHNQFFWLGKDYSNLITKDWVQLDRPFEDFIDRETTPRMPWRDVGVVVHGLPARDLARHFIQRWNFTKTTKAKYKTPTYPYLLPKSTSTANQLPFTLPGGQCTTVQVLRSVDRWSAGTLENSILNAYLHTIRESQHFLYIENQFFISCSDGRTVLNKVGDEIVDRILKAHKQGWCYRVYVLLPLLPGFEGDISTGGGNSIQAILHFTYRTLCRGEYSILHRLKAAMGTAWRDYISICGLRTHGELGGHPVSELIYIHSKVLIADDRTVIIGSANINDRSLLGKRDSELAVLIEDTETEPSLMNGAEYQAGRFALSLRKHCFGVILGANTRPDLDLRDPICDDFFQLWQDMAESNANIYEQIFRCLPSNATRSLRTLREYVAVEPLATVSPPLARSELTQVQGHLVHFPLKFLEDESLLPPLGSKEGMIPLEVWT

[5] = biological target: Vascular endothelial growth factor receptor 2 (Homo sapiens, UniProt P35968)
Vascular endothelial growth factor receptor 2, sequence (P35968 whole entry): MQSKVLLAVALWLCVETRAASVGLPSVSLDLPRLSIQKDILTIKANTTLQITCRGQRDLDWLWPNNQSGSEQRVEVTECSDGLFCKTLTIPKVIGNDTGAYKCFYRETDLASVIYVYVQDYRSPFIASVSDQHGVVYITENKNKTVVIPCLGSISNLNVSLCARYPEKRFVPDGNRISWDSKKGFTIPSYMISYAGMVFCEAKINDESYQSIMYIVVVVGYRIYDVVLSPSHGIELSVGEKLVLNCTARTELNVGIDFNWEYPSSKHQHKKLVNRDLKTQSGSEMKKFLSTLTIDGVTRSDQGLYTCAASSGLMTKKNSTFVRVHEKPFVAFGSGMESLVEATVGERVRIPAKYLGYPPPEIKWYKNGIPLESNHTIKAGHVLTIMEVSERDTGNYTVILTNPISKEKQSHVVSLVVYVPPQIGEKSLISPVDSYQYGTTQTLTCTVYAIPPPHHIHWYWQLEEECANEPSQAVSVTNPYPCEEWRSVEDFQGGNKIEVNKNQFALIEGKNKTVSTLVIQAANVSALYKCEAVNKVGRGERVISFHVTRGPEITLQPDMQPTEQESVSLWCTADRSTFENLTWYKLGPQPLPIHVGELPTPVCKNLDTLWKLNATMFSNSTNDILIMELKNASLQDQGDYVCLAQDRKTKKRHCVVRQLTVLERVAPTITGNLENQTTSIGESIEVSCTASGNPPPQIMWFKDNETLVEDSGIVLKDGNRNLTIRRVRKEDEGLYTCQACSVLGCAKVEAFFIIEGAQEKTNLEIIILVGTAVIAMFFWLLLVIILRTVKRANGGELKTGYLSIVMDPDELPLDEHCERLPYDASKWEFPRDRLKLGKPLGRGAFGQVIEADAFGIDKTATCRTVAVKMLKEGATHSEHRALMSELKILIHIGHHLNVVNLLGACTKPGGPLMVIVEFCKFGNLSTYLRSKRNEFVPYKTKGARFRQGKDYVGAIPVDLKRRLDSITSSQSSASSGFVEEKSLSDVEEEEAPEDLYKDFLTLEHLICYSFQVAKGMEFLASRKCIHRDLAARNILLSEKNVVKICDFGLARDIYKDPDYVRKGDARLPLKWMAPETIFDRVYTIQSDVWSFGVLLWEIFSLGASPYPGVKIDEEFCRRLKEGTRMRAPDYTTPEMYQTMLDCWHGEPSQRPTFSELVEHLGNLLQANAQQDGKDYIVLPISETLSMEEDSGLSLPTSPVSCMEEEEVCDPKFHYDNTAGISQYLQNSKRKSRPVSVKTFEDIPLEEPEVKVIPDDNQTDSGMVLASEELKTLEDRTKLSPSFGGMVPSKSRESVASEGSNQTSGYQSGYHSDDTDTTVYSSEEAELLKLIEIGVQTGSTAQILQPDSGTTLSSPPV

Aurora kinase B = Aurora kinase B (Homo sapiens, UniProt Q96GD4)
Aurora kinase A = biological target: T6, Aurora kinase A (Homo sapiens, UniProt O14965);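 note: value from the Navigating the Kinome kinase panel profiling, panel entry STK6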
T6 sequence (O14965 whole entry): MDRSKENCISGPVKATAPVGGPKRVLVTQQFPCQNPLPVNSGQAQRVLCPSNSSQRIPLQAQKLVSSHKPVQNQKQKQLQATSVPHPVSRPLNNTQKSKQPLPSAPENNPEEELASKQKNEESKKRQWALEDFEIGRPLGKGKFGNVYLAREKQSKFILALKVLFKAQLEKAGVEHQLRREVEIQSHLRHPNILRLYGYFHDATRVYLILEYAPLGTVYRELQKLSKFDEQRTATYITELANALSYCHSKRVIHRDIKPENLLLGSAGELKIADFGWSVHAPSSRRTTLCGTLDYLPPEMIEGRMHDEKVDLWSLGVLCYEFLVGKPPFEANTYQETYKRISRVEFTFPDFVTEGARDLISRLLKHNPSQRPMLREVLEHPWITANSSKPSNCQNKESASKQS

[6] = biological target: Mitogen-activated protein kinase kinase kinase kinase 4 (Homo sapiens, UniProt O95819)
[7] = biological target: Cell division cycle 7-related protein kinase (Homo sapiens, UniProt O00311);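 note: value obtained from a kinome-wide kinase panel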
Cell division cycle 7-related protein kinase, sequence (O00311 whole entry): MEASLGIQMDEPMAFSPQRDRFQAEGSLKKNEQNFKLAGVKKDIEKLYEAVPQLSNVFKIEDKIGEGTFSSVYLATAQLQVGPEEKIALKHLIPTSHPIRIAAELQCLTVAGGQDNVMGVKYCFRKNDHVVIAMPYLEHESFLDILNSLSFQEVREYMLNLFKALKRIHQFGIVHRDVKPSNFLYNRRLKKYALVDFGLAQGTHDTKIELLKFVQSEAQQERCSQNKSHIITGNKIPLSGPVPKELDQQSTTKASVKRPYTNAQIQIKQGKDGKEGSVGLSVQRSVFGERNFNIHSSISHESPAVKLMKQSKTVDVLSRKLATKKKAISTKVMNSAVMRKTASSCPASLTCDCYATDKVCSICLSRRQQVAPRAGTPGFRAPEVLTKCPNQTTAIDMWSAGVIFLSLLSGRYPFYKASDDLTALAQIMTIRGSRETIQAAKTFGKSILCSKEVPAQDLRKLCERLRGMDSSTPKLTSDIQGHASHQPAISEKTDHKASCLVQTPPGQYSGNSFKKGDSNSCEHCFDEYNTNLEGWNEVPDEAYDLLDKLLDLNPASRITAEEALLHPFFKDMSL

[8] = biological target: MAP kinase-interacting serine/threonine-protein kinase 2 (Homo sapiens, UniProt Q9HBH9)
MAP kinase-interacting serine/threonine-protein kinase 2, sequence (Q9HBH9 whole entry): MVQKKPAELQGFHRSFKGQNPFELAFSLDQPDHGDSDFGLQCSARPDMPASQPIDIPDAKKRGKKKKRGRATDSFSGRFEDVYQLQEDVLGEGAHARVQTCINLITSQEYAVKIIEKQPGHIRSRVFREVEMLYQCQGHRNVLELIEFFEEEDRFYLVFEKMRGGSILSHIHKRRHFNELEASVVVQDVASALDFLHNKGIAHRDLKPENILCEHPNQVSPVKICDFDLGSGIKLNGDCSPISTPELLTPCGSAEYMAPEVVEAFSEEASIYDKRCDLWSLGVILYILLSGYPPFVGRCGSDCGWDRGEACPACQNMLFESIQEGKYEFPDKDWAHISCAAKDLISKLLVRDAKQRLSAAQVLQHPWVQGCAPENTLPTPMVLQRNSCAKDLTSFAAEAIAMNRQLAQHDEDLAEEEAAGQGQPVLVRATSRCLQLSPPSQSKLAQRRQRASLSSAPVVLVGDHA

[9] = biological target: Glycogen synthase kinase-3 beta (Homo sapiens, UniProt P49841);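 note: value comes from a broad kinome profiling panel, with GSK3B as the panel member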
[10] = biological target: T7, Interleukin-1 receptor-associated kinase 4 (Homo sapiens, UniProt Q9NWZ3)
T7 sequence (Q9NWZ3 whole entry): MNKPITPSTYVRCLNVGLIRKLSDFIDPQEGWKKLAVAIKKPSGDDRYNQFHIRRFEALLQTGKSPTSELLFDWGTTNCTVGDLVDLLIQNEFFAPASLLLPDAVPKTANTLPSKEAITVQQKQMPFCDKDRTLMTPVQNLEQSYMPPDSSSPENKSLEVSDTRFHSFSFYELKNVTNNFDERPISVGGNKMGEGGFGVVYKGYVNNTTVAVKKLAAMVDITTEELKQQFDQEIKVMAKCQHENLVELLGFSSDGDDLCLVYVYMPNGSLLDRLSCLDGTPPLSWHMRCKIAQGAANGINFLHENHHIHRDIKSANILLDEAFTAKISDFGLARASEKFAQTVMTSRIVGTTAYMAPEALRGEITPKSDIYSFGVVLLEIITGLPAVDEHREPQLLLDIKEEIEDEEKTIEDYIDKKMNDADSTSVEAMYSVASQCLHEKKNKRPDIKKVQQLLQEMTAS

[11] = biological target: Homeodomain-interacting protein kinase 2 (Homo sapiens, UniProt Q9H2X6);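 note: measured within a kinome-wide kinase profiling panel, HIPK2 being one panel member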
Homeodomain-interacting protein kinase 2, sequence (Q9H2X6 whole entry): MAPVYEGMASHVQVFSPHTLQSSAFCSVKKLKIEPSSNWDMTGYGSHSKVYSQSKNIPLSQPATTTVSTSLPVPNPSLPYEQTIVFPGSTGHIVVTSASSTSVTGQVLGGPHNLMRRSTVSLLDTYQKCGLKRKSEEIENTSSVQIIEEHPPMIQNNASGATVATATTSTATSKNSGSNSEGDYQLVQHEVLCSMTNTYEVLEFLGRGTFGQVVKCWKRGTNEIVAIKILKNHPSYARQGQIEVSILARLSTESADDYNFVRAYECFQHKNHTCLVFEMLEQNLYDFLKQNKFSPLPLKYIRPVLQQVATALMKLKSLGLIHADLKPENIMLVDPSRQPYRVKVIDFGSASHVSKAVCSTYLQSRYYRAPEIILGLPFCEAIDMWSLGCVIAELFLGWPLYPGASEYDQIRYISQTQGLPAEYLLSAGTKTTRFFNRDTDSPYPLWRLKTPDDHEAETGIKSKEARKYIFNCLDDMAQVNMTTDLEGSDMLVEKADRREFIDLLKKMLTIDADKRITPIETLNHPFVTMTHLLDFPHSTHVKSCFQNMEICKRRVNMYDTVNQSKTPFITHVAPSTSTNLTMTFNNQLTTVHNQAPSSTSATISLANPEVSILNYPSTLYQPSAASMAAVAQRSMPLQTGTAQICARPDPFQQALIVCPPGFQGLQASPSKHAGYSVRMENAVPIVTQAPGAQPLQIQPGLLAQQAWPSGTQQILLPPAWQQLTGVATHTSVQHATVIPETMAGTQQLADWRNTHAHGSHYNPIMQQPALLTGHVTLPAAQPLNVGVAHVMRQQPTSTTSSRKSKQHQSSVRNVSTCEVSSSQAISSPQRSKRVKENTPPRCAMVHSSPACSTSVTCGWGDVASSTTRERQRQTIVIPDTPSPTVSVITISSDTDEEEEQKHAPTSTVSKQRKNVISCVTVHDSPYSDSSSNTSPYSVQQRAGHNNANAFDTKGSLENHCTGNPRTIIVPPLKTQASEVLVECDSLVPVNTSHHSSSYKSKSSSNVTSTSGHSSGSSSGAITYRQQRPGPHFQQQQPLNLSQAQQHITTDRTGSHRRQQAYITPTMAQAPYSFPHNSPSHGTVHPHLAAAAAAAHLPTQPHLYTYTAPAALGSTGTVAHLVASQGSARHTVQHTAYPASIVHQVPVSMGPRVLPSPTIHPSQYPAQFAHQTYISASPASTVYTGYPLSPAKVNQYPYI

[12] = biological target: Serine/threonine-protein kinase pim-1 (Homo sapiens, UniProt P11309)
Serine/threonine-protein kinase pim-1, sequence (P11309 whole entry): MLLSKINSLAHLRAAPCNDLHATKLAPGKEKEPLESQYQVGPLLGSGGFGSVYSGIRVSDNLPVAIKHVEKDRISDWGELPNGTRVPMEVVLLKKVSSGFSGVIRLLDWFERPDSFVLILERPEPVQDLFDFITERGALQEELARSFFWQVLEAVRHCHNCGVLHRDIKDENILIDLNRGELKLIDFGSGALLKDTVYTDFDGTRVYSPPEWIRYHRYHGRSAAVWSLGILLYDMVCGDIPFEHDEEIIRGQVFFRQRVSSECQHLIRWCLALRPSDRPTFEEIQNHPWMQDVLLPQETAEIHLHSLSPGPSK

[13] = biological target: cAMP-dependent protein kinase catalytic subunit alpha (Homo sapiens, UniProt P17612)

COc1ccc(COC(=O)c2c(C)nn(-c3ccccc3)c2Cl)cc1
active: IC50 (Caspase-3) 40.2 µM | IC50 [1] 73.3 µM | IC50 [2] 98.1 µM | IC50 [3] 19.4 µM

COc1ccc(-c2cc(O)cc(O)c2)cc1
active: EC50 (H4) 4.12 µM | EC50 [4] 3.8 µM | IC50 (Caspase-3) 30.9 µM | IC50 [1] 41.1 µM | IC50 [2] 48 µM | IC50 [3] 12.3 µM

CN(CCN1CCC(n2c(=O)[nH]c3ccccc32)CC1)C(=O)c1ccc2ccccc2c1
active: IC50 (Phospholipase D1) 2.06 µM | IC50 (Phospholipase D2) 20 µM

C[C@@H](CN1CCC2(CC1)C(=O)NCN2c1ccccc1)NC(=O)[C@@H]1C[C@H]1c1ccccc1
active: IC50 (Phospholipase D1) 2.56 µM | IC50 (Phospholipase D2) 20 µM

C[C@H](CN1CCC2(CC1)C(=O)NCN2c1ccccc1)NC(=O)c1cc2cc(F)ccc2[nH]1
active: IC50 (Phospholipase D1) 0.002 µM | IC50 (Phospholipase D2) 0.023 µM

CCCCS(=O)(=O)Nc1ccc2c(c1)C(=NO)c1ccccc1-2
active: Ki [5] 1.58 µM | Ki (Aurora kinase B) 0.01 µM | Ki (Aurora kinase A) 1.26 µM

c1cnc2[nH]cc(-c3ccnc(NCC4CCCCC4)n3)c2c1
inactive: Ki [12] > 10 µM
active: Ki [6] 0.02 µM | Ki [7] 0.00794 µM | Ki [8] 0.0794 µM | Ki [9] 0.126 µM | Ki [10] 0.316 µM | Ki [11] 0.0158 µM | Ki [13] 0.2 µM
